This passage reports DSF results from patent publication US20260285857A1, “BICYCLIC AND HETEROCYCLIC AMIDE COMPOUNDS” (priority 2024, published 2026).

The subject of one test is immunoglobulin light chain protein WIL-FL T46L. The test is described as follows: Differential scanning fluorimetry (thermal shift) assay. The conditions noted are these: Table A; temperature shift [Tm]compound-[Tm]vehicle; recombinant WIL-FL T46L. In kind it is binding. (In general: DSF heats the sample and reads unfolding from a dye or from intrinsic fluorescence.)
`Cc1cc(N2CC[C@](C)(c3ccccc3)C2)cn2nc(C(=O)NC3CCN(c4cccc(C(=O)O)n4)C3)nc12` (stereo partly drawn) [Compound 19, 6-(3-(8-methyl-6-((R)-3-methyl-3-phenylpyrrolidin-1-yl)-[1,2,4]triazolo[1,5-a]pyridine-2-carboxamido)pyrrolidin-1-yl)picolinic acid]: the DSF entry was “***** (>2.5° C.=*****)”.

Take `Cc1cc(OC[C@H](C)c2ccccc2)cn2nc(C(=O)NC3CCN(c4cccc(C(=O)O)n4)C3)nc12` (stereo partly drawn) [Compound 305]: the DSF result is listed as “***** (>2.5° C.=*****)”.

`COC(C)(C)CNC(=O)c1nc2c(C)cc(N3CC[C@](C)(c4ccccc4)C3)cn2n1` [Compound 107]: the DSF entry is “***** (>2.5° C.=*****)”.

`CNC(=O)c1nc2c(C)cc(N3CCC(C)(c4ncco4)C3)cn2n1` (stereo not drawn) [Compound 14, N,8-dimethyl-6-(3-methyl-3-(oxazol-2-yl)pyrrolidin-1-yl)-[1,2,4]triazolo[1,5-a]pyridine-2-carboxamide]: the DSF result was “** (>0.5-1 °C =**)”.

Turning to `Cc1cc(N2CC[C@](C)(c3ccccc3)C2)cn2nc(S(=O)(=O)NC3CCNCC3)nc12` [Compound 325], the DSF entry was “***** (>2.5° C.=*****)”.

`Cc1cc(N2CC[C@](C)(c3ccccc3)C2)cn2nc(C(=O)N3CCCC4(CC(N5CC6C(C5)C6C(=O)O)CO4)C3)nc12` (stereo partly drawn) [Compound 355]: the DSF result is listed as “***** (>2.5° C.=*****)”.

Turning to `Cc1cc(N2CC[C@](C)(c3ccccc3)C2)cn2nc(C(=O)NC34CCC(C(=O)O)(C3)OC4)nc12` (stereo partly drawn) [Compound 181], the DSF result is reported as “***** (>2.5° C.=*****)”.

As to `Cc1cc(N2CC[C@](C)(c3cccc(F)c3)C2)cn2nc(C(=O)NC3CC4(C3)CC(N3CC5C(C3)C5C(=O)O)C4)nc12` (stereo partly drawn) [Compound 384], the DSF result is “***** (>2.5° C.=*****)”.

As to `Cc1cc(OC[C@H](C)c2cccc(F)c2)cn2nc(C(=O)N3CC[C@@](C)(O)C3)nc12` [Compound 309], the DSF result is “**** (>1.5-2.5° C.=****)”.

For the compound `Cc1cc(N2CC[C@](C)(c3ccccc3)C2)cn2nc(C(=O)NC3CNCC3O)nc12` (stereo partly drawn) [Compound 117], the DSF result is listed as “***** (>2.5° C.=*****)”.

Turning to `Cc1cc(N2CC[C@](C)(c3ccccc3)C2)cn2nc(C(=O)NC(C)(C)CO)nc12` [Compound 153], the DSF entry is “***** (>2.5° C.=*****)”.

As for `Cc1cc(N2CC[C@](C)(c3ccccc3)C2)cn2nc(C(=O)NC3CCN(c4ncc(S(C)(=N)=O)cn4)C3)nc12` (stereo partly drawn) [Compound 237], the DSF result is “***** (>2.5° C.=*****)”.

In the case of `Cc1cc(N2CC[C@](C)(c3ccccc3)C2)cn2nc(C(C)(C)OC3CCNC3)nc12` (stereo partly drawn) [Compound 168], the DSF entry is on record as “**** (>1.5-2.5° C.=****)”.

Regarding `Cc1cc(N2CC[C@](C)(c3ccccc3)C2)cn2nc(C34CC(O)(CO3)C4)nc12` [Compound 381], the DSF result was “***** (>2.5° C.=*****)”.

The same test, now with this note: Table B; temperature shift [Tm]compound-[Tm]vehicle; recombinant WIL-FL T46L.
Regarding `Cc1cc(N2CC[C@](C)(c3ccccc3)C2)cn2nc(C(=O)N3CC[C@@]4(CCN(C(=O)C56COC(C(=O)O)(C5)C6)C4)C3)nc12` [Compound 726], the DSF result is “***** (>2.5° C.=*****)”.

On to `Cc1cc(N2CC[C@](C)(c3ccccc3)C2)cn2nc(C3OC4(C)CC3(C(=O)O)C4)nc12` (stereo partly drawn) [Compound 474, 1-methyl-3-[8-methyl-6-[(3R)-3-methyl-3-phenyl-pyrrolidin-1-yl]-[1,2,4]triazolo[1,5-a]pyridin-2-yl]-2-oxabicyclo[2.1.1]hexane-4-carboxylic acid], for which the DSF entry was “**** (>1.5-2.5° C.=****)”.

Consider `Cc1cc(N2CC3(CCC3c3cccc(F)c3)C2)cn2nc(C(=O)N3CC[C@@]4(CCN(c5cccc(C(=O)O)n5)C4)C3)nc12` (stereo partly drawn) [Compound 737], for which the DSF entry is recorded as “***** (>2.5° C.=*****)”.

In the case of `Cc1cc(N2CC[C@](C)(c3ccccc3)C2)cn2nc(C34CC(CO3)C4NCC3(N)COC3)nc12` (stereo partly drawn) [Compound 510, N-[(3-aminooxetan-3-yl)methyl]-1-[8-methyl-6-[(3R)-3-methyl-3-phenyl-pyrrolidin-1-yl]-[1,2,4]triazolo[1,5-a]pyridin-2-yl]-2-oxabicyclo[2.1.1]hexan-5-amine], the DSF entry is given as “***** (>2.5° C.=*****)”.
